Reference: ChEMBL document CHEMBL4699460, “Integrating DNA-encoded chemical libraries with virtual combinatorial library screening: Optimizing a PARP10 inhibitor” (Bioorg Med Chem Lett, 2020)

Legend:
[1] = target: T1, Protein mono-ADP-ribosyltransferase PARP3 (Homo sapiens) (UniProt Q9Y6F1); assay: (§1) Inhibition of N-terminal GST tagged full length human PARP3 expressed in baculovirus infected Sf9 cells assessed as reduction in NAD+-dependent ADP ribosylation using histone as substrate at 10 uM incubated for 1 hr in presence of biotinylated NAD+ and activated DNA by chemiluminescence based microplate reader assay relative to control
T1 sequence (whole entry): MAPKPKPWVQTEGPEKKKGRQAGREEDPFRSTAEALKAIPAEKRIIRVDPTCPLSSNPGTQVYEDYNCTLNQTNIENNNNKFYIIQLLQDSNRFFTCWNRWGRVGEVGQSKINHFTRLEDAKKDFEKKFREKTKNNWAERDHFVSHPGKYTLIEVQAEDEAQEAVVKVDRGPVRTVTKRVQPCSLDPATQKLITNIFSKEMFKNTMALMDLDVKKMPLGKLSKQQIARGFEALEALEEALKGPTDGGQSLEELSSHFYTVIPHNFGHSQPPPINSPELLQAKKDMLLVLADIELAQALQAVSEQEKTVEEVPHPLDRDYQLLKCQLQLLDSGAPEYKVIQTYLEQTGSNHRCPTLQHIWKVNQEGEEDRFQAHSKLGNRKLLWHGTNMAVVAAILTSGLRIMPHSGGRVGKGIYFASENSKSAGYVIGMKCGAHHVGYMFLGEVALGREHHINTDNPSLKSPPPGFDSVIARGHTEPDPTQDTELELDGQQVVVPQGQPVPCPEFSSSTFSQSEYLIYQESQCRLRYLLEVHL

[2] = target: T2, Poly [ADP-ribose] polymerase tankyrase-2 (Homo sapiens) (UniProt Q9H2K2); assay: Inhibition of TNKS2 (unknown origin) at 10 uM relative to control
T2 sequence (whole entry): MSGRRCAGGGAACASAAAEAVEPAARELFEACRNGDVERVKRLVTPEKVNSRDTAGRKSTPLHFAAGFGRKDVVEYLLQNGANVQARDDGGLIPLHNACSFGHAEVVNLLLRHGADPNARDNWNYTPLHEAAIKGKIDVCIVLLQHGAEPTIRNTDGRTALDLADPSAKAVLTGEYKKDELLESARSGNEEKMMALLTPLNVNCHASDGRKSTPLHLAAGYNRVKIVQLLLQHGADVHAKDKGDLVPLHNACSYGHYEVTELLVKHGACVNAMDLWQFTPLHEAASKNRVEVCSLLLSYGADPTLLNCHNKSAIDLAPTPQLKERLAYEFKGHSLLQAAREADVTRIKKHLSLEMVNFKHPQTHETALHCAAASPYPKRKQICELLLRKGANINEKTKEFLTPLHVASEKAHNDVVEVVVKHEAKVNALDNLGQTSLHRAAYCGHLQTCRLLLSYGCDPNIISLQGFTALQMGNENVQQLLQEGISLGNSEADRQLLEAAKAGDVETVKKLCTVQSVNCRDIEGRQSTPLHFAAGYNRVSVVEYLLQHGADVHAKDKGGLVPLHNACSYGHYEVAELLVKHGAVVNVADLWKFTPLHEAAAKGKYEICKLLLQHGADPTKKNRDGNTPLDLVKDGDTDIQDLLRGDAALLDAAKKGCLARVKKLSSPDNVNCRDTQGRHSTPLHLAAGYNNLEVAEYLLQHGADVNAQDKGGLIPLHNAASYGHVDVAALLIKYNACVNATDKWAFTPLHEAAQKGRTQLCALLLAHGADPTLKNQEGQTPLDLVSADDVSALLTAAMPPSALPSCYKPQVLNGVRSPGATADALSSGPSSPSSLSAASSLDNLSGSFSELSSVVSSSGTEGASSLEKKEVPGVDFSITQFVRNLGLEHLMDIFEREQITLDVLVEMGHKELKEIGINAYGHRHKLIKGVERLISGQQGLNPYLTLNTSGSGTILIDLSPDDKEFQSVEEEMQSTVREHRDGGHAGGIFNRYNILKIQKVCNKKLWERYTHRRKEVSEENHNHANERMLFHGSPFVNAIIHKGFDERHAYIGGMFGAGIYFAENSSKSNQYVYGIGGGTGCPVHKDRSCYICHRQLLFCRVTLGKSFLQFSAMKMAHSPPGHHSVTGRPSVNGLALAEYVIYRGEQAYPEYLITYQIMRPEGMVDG

[3] = target: Poly [ADP-ribose] polymerase 1 (Homo sapiens) (UniProt P09874); assay: as §1, with “tagged” for “tagged full length”, “PARP1 (2 to 1041 residues)” for “PARP3”
Chain of Poly [ADP-ribose] polymerase 1 (Homo sapiens) (P09874 whole entry, the tested form may be a part): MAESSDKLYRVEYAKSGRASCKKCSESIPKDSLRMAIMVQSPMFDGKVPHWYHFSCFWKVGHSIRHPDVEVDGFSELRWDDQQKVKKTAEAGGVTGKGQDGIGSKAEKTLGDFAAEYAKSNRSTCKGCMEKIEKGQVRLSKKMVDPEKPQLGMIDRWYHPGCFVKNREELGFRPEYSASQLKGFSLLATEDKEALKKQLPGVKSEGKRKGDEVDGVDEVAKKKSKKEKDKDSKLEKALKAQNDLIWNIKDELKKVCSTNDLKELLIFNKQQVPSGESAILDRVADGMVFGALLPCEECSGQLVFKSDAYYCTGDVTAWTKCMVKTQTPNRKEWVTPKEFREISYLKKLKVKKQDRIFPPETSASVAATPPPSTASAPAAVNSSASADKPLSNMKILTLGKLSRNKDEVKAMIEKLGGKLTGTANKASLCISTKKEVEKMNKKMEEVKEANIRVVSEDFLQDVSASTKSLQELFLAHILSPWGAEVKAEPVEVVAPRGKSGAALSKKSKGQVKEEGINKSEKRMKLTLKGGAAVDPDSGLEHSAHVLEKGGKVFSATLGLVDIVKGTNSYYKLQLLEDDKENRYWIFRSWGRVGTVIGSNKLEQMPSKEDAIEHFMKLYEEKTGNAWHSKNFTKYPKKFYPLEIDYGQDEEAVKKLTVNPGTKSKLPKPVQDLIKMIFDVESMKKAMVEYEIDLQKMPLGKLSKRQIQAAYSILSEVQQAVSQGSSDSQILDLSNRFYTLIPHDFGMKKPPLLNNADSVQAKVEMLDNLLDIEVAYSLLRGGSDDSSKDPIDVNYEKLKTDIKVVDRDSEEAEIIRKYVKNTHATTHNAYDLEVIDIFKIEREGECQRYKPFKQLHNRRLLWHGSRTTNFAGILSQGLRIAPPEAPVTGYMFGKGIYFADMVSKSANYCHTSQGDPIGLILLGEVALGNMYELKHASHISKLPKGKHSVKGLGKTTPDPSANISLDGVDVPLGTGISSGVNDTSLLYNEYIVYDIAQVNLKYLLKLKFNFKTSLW

| inhibition [1] [%] | inhibition [2] [%] | inhibition [3] [%] | Compound |
| --- | --- | --- | --- |
| 22 | > 50 | > 50 | CC1(CNC(=O)COc2cccc3c2CCCC3=O)CCN(C(=O)CCc2nc3ccccc3[nH]c2=O)CC1 |
| < 25 | < 25 | < 25 | CNC(=O)[C@H](CNC(=O)CCc1nc2ccccc2[nH]c1=O)NC(=O)c1ccc2c(c1)CCCC2=O |
